Results on 14 compounds are retold here after patent US9655838B2, “Antimicrobial compositions comprising essential oil combinations” (priority 2013, dated 2017).

One data set concerns A. viscosus. The data set can be described thus: Determination of MIC of individual essential oils (broth microdilution, O.D. at 610 nm). Type of data set: cell-based, A. viscosus ATCC 43146. The conditions noted are these: for MIC: Actinomyces viscosus. As for the experimental part:
Minimum inhibitory concentration (MIC) is assessed as follows: A 96-well microtiter plate is inoculated with 100 μl of TSB (Tryptic Soy Broth) media in each well. Stock solutions of the active are prepared as required (w/v basis) in percent. The different stock solutions (>1%) are used to achieve the final MIC concentration of the actives. The positive control (Triclosan) is prepared as a 0.1% stock solution. Each active is diluted 1:10 using sterile TSB. 100 μl of the stock solution is added in the first column for the actives and the controls. Transfer 100 μl of the solution from the first column to the next, mix and repeat the transfer to serially dilute 2-fold across the plate. The last 100 μl is discarded. Prepare 0.2-0.3 O.D. activated culture of A. viscosus ATCC 43146 grown in TSB overnight at 37° C. Add 100 μl of the adjusted bacterial culture to each well. Incubate the plates for 24 hours at 37° C. Determine the growth by measuring the O.D. at 610 nm. The data is transferred to an Excel spreadsheet for comparison of the O.D. values. The concentration higher than the lowest concentration with large increment in O.D. is taken as the MIC. Depending on the value obtained the MIC is repeated using higher or lower concentrations of the stock solution. This gives the closest value of the concentration determined by serial dilution at which the microorganism is inhibited (MIC).
(In general: Broth dilution looks for growth in wells or tubes with falling amounts of substance.)

For data set [1] the following is noted: cited from earlier work.
The mark [2] stands for this setting: individual essential oils against A. viscosus, 24 hours at 37° C.
Setting [3] is: individual essential oils against A. viscosus, 24 hours at 37° C, read-out: MIC value (ppm).
Setting [4] is: Table 3, essential oil alone, read-out: Individual MIC (concentration of each essential oil alone necessary to produce the same effect).

Where two headings read alike, the source gives them in different places.

As for `Cc1cc(O)ccc1C(C)C` [IPMP (99.8% pure)], the “MIC value (ppm)” value in the data set on A. viscosus (setting [2]) was 160 ppm.
In the case of `CCCc1ccc(O)c(OC)c1` [Dihydro-eugenol], the “MIC value (ppm)” value with A. viscosus (setting [2]) stood at 500 ppm.
For the compound `CC12CCC(CC1)C(C)(C)O2` [Eucalyptol], the MIC in the data set on A. viscosus (setting [3]) came to 250 µg/mL.
For the compound `Cc1ccc(C(C)C)c(O)c1` [Thymol (98% pure), Thymol], the MIC in the data set with A. viscosus (setting [4]) and in the data set on A. viscosus (setting [3]) was 900 µg/mL in each case.
As for `C=CCc1ccc(O)c(OC)c1` [Eugenol], in the data set on A. viscosus (setting [3]), the MIC is 2000 µg/mL.
For the compound α-(±)-bisabolol [Syn. Bisabolol], the “Individual MIC (concentration of each essential oil alone necessary to produce the same effect)” value in the data set on A. viscosus (Table 3, essential oil alone) amounted to 125 ppm. Besides, in the data set on A. viscosus (setting [2]), the “MIC value (ppm)” value was found to be 125 ppm.
As for `CC(C)=CCCC(C)=CC=O` [Citral], the MIC in the data set on A. viscosus (setting [4]) and with A. viscosus (setting [3]) was 250 µg/mL in each case.
On to `Cc1ccc(C(C)C)cc1O` [Carvacrol, carvacrol], for which the MIC with A. viscosus (24 h, read-out: MIC value (ppm)) was found to be 80 µg/mL; with A. viscosus (read-out: Individual MIC (concentration of each essential oil alone necessary to produce the same effect)), 80 µg/mL. Besides, the “Individual MIC (concentration of each essential oil alone necessary to produce the same effect)” value in the data set with A. viscosus (Table 3, essential oil alone) was 80 ppm.
Regarding `COC(=O)c1ccccc1O` [Methyl salicylate], in the data set with A. viscosus (setting [3]), the MIC was 1000 µg/mL.
`OCc1ccccc1` [Benzyl alcohol]: the MIC in the data set with A. viscosus (setting [3]) was 700 µg/mL.
For the compound `[O]=[Zn]` [Zinc oxide], the “MIC value (ppm)” value with A. viscosus (setting [2]) was determined as 625 ppm.
As for `CC(C)=CCC[C@](C)(O)[C@@H]1CC=C(C)CC1` [bisabolol, α-(−)-bisabolol], the Solubility in ethanol entry in data set [1] (ethanol) is listed as “soluble”. In data set [1] (water and glycerin), the “Solubility in water and glycerin” value is on record as “almost insoluble”.
For Catechins hydrate, in the data set with A. viscosus (setting [2]), the “MIC value (ppm)” value was determined as 100 ppm.
Still for that read-out and setting: to `O=C([O-])CC(O)(CC(=O)[O-])C(=O)[O-].O=C([O-])CC(O)(CC(=O)[O-])C(=O)[O-].[Zn+2].[Zn+2].[Zn+2]` [Zinc citrate] belongs 160 ppm.
